Reference: patent publication US20220332695A1, “UREA DERIVATIVES AS CB1 ALLOSTERIC MODULATORS” (RTI INTERNATIONAL, priority 2019, published 2022)
Where two headings read alike, the source gives them in different places.

What was measured:
mouse CB1R = target: T1, mouse CB1R (Mus musculus, UniProt P47746); experiment: [35S]GTPγS binding assay in mouse cerebellum membranes; type: biochemical
T1 construct: membranes (10 μg protein) from either ICR mouse cerebellum mice; from tissue; host or cells: cerebellum membranes of ICR mice
T1 sequence (P47746 whole entry): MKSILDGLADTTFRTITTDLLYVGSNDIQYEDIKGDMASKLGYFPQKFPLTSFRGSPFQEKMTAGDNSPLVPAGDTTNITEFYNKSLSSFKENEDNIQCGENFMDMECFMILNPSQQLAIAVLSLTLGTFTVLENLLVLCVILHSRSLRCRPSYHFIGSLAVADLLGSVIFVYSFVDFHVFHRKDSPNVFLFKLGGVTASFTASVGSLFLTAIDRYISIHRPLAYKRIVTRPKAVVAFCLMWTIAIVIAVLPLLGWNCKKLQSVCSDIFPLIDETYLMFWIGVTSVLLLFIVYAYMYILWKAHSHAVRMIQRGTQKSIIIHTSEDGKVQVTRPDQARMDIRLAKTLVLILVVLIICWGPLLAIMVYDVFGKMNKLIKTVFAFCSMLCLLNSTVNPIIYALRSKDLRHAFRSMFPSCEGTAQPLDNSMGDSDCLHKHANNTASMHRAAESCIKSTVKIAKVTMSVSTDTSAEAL
Method: (§1) [^35S]GTPγS Binding Assay: For receptor signaling, membranes (10 μg protein) from either ICR mouse cerebellum mice (6-8 weeks old; Enviga
(§2) Non-specific binding was determined by adding 30 μM unlabeled GTPyS. Concentration response curves for allosteric modulators were conducted in the presence of CP55,940 (100 nM or 1 μM) to calculate 1050 values.
(§3) For [^35S]GTPyS experiments, data were normalized to maximal CP55,940 (100 nM) stimulation in the absence of test compound (i.e., vehicle=100%).
Select compounds were evaluated in the CP55,940-induced [^35S]GTPyS binding assays using mouse cerebellum membrane at two CP55,940 concentrations, 100 nM and 1μM.

hCB1R [1] = target: T2, hCB1R (Homo sapiens, UniProt P21554); experiment: Calcium mobilization assay, antagonist mode against CP55,940; type: cell-based; design: expressed in transfected cells; host or cells: CHO-RD-HGA16 cells (parental line from Molecular Devices)
T2 sequence (P21554 whole entry): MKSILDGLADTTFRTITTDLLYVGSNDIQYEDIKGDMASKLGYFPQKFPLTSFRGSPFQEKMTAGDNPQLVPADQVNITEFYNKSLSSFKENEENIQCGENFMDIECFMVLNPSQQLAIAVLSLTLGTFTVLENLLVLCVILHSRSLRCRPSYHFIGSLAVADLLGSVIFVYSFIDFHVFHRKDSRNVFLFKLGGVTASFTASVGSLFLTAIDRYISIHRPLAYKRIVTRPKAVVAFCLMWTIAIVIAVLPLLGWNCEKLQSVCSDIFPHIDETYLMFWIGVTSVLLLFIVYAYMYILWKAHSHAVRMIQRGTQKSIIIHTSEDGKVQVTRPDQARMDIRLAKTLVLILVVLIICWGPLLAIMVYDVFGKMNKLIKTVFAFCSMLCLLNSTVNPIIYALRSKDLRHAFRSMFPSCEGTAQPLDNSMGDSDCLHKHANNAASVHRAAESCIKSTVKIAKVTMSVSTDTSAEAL
Method: Calcium Mobilization Assay: CHO-RD-HGA16 cells (Molecular Devices, San Jose, Calif., United States of America) stably expressing the human CB1 receptor were plated into 96-well black-walled assay plates at 25,000 cells/well in 100 pL of Ham's F12 (supplemented with 10% fetal bovine serum, 100 units of penicillin/streptomycin, and 100 µg/mL Normocin) and incubated overnight at 37° C., 5% CO2. Calcium 5 dye (Molecular Devices, San Jose, Calif., United States of America) was reconstituted according to the manufacturer's instructions. The reconstituted dye was diluted 1:40 in prewarmed (37° C.) assay buffer (1x HBSS, 20 mM HEPES, 2.5 mM probenecid, pH 7.4 at 37° C.). Growth medium was removed, and the cells were gently washed with 100 pL of prewarmed (37° C.) assay buffer. The cells were incubated for 45 min at 37° C., 5% CO2 in 200 pL of the diluted Calcium 5 dye solution. […] Serial dilutions of the test compounds were prepared at 10x the desired final concentration in 2.25% BSA/4.5% DMSO/4.5% EtOH/assay buffer. After the dye loading incubation period, the cells were pretreated with 25 pL of the test compound serial dilutions and incubated for 15 min at 37° C. After the pretreatment incubation period, the plate was read with a FLIPR Tetra (Molecular Devices, San Jose, Calif., United States of America). Calcium-mediated changes in fluorescence were monitored every 1 s over a 90 s time period, with the Tetra adding 25 pL of the CP55,940 EC80 concentration at the 10s time point (excitation/emission: 485/525 nm). Relative fluorescence units (RFU) were plotted against the log of compound concentrations. For agonist screens, the above procedure was followed except that cells were pretreated with 2.25% BSA/4.5% DMSO/4.5% EtOH/assay buffer and the Tetra added single concentration dilutions of the test compounds prepared at 10x the desired final concentration in 0.25% BSA/0.5% DMSO/0.5% EtOH/assay buffer. Test compound RFUs were compared to the CP55,940 Emax RFUs to generate % Emax values.
Data Analysis: For calcium mobilization experiments, data were fit to a three-parameter logistic curve to generate IC50 values (GraphPad Prism 6.0, Graphpad Software, San Diego, Calif., United States of America).

hCB1R [2] = target: T2, hCB1R; experiment: [35S]GTPγS binding assay in HEK cells stably expressing human CB1R; type: biochemical; design: expressed in transfected cells; host or cells: HEK (HEK293) cells, membranes; conditions: [CP] = 100 nM, mean (95% confidence interval), read-out: hCB1R [35S]GTPγS binding assay IC50
Method: as §1, §2, §3

[3] = Tables 4-6, CP55,940 concentration not stated, mean (95% confidence interval), read-out: mCB1R [35S]GTPγS binding assay IC50
[4] = CHO cells expressing human CB1R, against CP55,940 (100 nM), mean ± SEM, read-out: hCB1R Calcium assay IC50

Row | Compound | IC50 (hCB1R [1]; [4]) | IC50 (hCB1R [1]) | also measured
1 | 3-(4-Chlorophenyl)-1-[2-(3-methoxyphenyl)ethyl]urea [Compound 55] | 228 ± 45 nM |  | IC50 (mouse CB1R; [3]): 3720 nM
2 | O=C(Nc1ccc(Cl)cc1)N[C@@H]1C[C@H]1c1ccccc1 (racemic) [Compound 15, trans-1-(4-Chlorophenyl)-3-(2-phenylcyclopropyl)urea] | 1220 ± 188 nM |  | IC50 (hCB1R [2]): > 10000 nM
3 | O=C(Nc1ccc(Cl)cc1)N[C@@H]1C[C@@H]1c1ccccc1 (relative stereo) [Compound 16, cis-1-(4-Chlorophenyl)-3-(2-phenylcyclopropyl)urea] | > 10000 nM |  | IC50 (hCB1R [2]): > 10000 nM
4 | O=C(NC[C@@H]1C[C@H]1c1ccccc1)Nc1ccc(Cl)cc1 (relative stereo) [Compound 43, trans-1-(4-Chlorophenyl)-3-[(2-phenylcyclopropyl)methyl]urea] | 2610 ± 548 nM |  | 
5 | COc1ccc(-c2cccc(N3CCCC3)n2)cc1NC(=O)Nc1ccc(Cl)cc1 [Compound 6, 3-(4-Chlorophenyl)-1-{2-methoxy-5-[6-(pyrrolidin-1-yl)pyridin-2-yl]phenyl}urea] | 1270 nM |  | IC50 (hCB1R [2]): > 10000 nM
6 | O=C(Nc1ccc(Cl)cc1)Nc1csc(-c2ccccc2)c1 [Compound 13, 1-(4-Chlorophenyl)-3-(5-phenylthiophen-3-yl)urea] | 60 ± 8 nM |  | IC50 (hCB1R [2]): 888 nM
7 | O=C(Nc1ccc(Cl)cc1)Nc1ccc(-c2cccc(F)c2)s1 [Compound 19, 1-(4-Chlorophenyl)-3-[5-(3-fluorophenyl)thiophen-2-yl]urea] | 39 ± 6 nM |  | IC50 (hCB1R [2]): 425 nM
8 | O=C(Nc1ccc(Cl)cc1)Nc1ccc(-c2cccc(Cl)c2)s1 [Compound 22, 1-(4-Chlorophenyl)-3-[5-(3-chlorophenyl)thiophen-2-yl]urea] | 40 ± 7 nM |  | IC50 (hCB1R [2]): 553 nM
9 | O=C(Nc1ccc(Cl)cc1)Nc1ccc(-c2ccc(Cl)cc2)s1 [Compound 23, 1-(4-Chlorophenyl)-3-[5-(4-chlorophenyl)thiophen-2-yl]urea] | 43 ± 7 nM |  | IC50 (hCB1R [2]): 774 nM
10 | O=C(Nc1ccc(Cl)cc1)Nc1ccc(-c2ccc(Cl)c(Cl)c2)s1 [Compound 24, 1-(4-Chlorophenyl)-3-[5-(3,4-dichlorophenyl)thiophen-2-yl]urea] | 111 ± 14 nM |  | IC50 (hCB1R [2]): 1720 nM
11 | O=C(NCCCc1ccccc1)Nc1ccc(Cl)cc1 [Compound 37, 3-(4-Chlorophenyl)-1-(3-phenylpropyl)urea] | 3700 ± 481 nM |  | 
12 | O=C(NCC(F)(F)c1ccccc1)Nc1ccc(Cl)cc1 [Compound 39, 3-(4-Chlorophenyl)-1-(2,2-difluoro-2-phenylethyl)urea] | 1580 ± 328 nM |  | 
13 | O=C(NCC1(c2ccccc2)CC1)Nc1ccc(Cl)cc1 [Compound 41, 1-(4-Chlorophenyl)-3-[(1-phenylcyclopropyl)methyl]urea] | 5160 ± 1150 nM |  | 
14 | O=C(NCCc1ccccc1)Nc1ccc(Cl)cc1 [Compound 44, 3-(4-Chlorophenyl)-1-(2-phenylethyl)urea] |  | 193 ± 35 nM | 
15 | CC(C)(C)c1ccc(CCNC(=O)Nc2ccc(Cl)cc2)cc1 [Compound 45, 1-[2-(4-tert-Butylphenyl)ethyl]-3-(4-chlorophenyl)urea] |  | 573 ± 105 nM | 
16 | O=C(NCCc1ccc(-c2ccccc2)cc1)Nc1ccc(Cl)cc1 [Compound 46, 3-(4-Chlorophenyl)-1-[2-(4-phenylphenyl)ethyl]urea] |  | 897 ± 167 nM | 
17 | O=C(NCCc1ccc([N+](=O)[O-])cc1)Nc1ccc(Cl)cc1 [Compound 48, 3-(4-Chlorophenyl)-1-[2-(4-nitrophenyl)ethyl]urea] |  | 87 ± 12 nM | IC50 (mouse CB1R; [3]): 780 nM
18 | COc1cc(CCNC(=O)Nc2ccc(Cl)cc2)ccc1O [Compound 49, 3-(4-Chlorophenyl)-1-[2-(4-hydroxy-3-methoxyphenyl)ethyl]urea] |  | > 10000 nM | 
19 | CN(C)c1cccc(CCNC(=O)Nc2ccc(Cl)cc2)c1 [Compound 50, 3-(4-Chlorophenyl)-1-{2-[3-(dimethylamino)phenyl]ethyl}urea] |  | 1680 ± 284 nM | IC50 (mouse CB1R): 592 nM
20 | CN(C)c1ccc(CCNC(=O)Nc2ccc(Cl)cc2)cc1 [Compound 51, 3-(4-Chlorophenyl)-1-{2-[4-(dimethylamino)phenyl]ethyl}urea] |  | 323 ± 88 nM | IC50 (mouse CB1R): 1590 nM
21 | CS(=O)(=O)c1ccc(CCNC(=O)Nc2ccc(Cl)cc2)cc1 [Compound 52, 3-(4-Chlorophenyl)-1-[2-(4-methanesulfonylphenyl)ethyl]urea] |  | > 10000 nM | 
22 | COc1ccccc1CCNC(=O)Nc1ccc(Cl)cc1 [Compound 53, 3-(4-Chlorophenyl)-1-[2-(2-methoxyphenyl)ethyl]urea] |  | 1620 ± 248 nM | 
23 | COc1cccc(CCNC(=O)Nc2ccc(Cl)cc2)c1 [Compound 54, 3-(4-Chlorophenyl)-1-[2-(3-methoxyphenyl)ethyl]urea] |  | 485 ± 93 nM | 
24 | COc1ccc(CCNC(=O)Nc2ccc(Cl)cc2)cc1OC [Compound 56, 3-(4-Chlorophenyl)-1-[2-(3,4-dimethoxyphenyl)ethyl]urea] |  | 1860 ± 319 nM | 
25 | O=C(NCCc1ccc(O)cc1)Nc1ccc(Cl)cc1 [Compound 58, 3-(4-Chlorophenyl)1-[2-(4-hydroxyphenyl)ethyl]urea] |  | > 10000 nM | 

Row | Compound | IC50 (hCB1R [1]; [4]) | IC50 (hCB1R [1]) | also measured
26 | Cc1ccc(CCNC(=O)Nc2ccc(Cl)cc2)cc1 [Compound 59, 3-(4-Chlorophenyl)1-[2-(4-methylphenyl)ethyl]urea] |  | 137 ± 21 nM | 
27 | Cc1cccc(CCNC(=O)Nc2ccc(Cl)cc2)c1 [Compound 60, 3-(4-Chlorophenyl)1-[2-(3-methylphenyl)ethyl]urea] |  | 45 ± 9 nM | IC50 (mouse CB1R; [3]): 4180 nM
28 | O=C(NCCc1ccccc1F)Nc1ccc(Cl)cc1 [Compound 61, 3-(4-Chlorophenyl)1-[2-(2-fluorophenyl)ethyl]urea] |  | 174 ± 27 nM | 
29 | O=C(NCCc1cccc(F)c1)Nc1ccc(Cl)cc1 [Compound 62, 3-(4-Chlorophenyl)-1-[2-(3-fluorophenyl)ethyl]urea] |  | 53 ± 9 nM | IC50 (mouse CB1R; [3]): 1520 nM
30 | O=C(NCCc1ccc(F)cc1)Nc1ccc(Cl)cc1 [Compound 63, 3-(4-Chlorophenyl)1-[2-(4-fluorophenyl)ethyl]urea] |  | 108 ± 19 nM | 
31 | O=C(NCCc1ccc(F)c(F)c1)Nc1ccc(Cl)cc1 [Compound 64, 3-(4-Chlorophenyl)-1-[2-(3,4-difluorophenyl)ethyl]urea] |  | 47 ± 5 nM | 
32 | O=C(NCCc1c(F)cc(F)cc1F)Nc1ccc(Cl)cc1 [Compound 65, 3-(4-Chlorophenyl)-1-[2-(2,4,6-trifluorophenyl)ethyl]urea] |  | 81 ± 9 nM | 
33 | O=C(NCCc1c(F)c(F)c(F)c(F)c1F)Nc1ccc(Cl)cc1 [Compound 66, 3-(4-Chlorophenyl)1-[2-(2,3,4,5,6-pentafluorophenyl)ethyl]urea] |  | 34 ± 7 nM | 
34 | O=C(NCCc1ccccc1Cl)Nc1ccc(Cl)cc1 [Compound 67, 3-(4-Chlorophenyl)1-[2-(2-chlorophenyl)ethyl]urea] |  | 237 ± 35 nM | 
35 | O=C(NCCc1ccc(Cl)cc1Cl)Nc1ccc(Cl)cc1 [Compound 69, 3-(4-Chlorophenyl)1-[2-(2,4-dichlorophenyl)ethyl]urea] |  | 174 ± 34 nM | 
36 | O=C(NCCc1c(F)cccc1Cl)Nc1ccc(Cl)cc1 [Compound 70, 3-(4-Chlorophenyl)1-[2-(2-chloro-6-fluorophenyl)ethyl]urea] |  | 408 ± 66 nM | 
37 | O=C(NCCc1ccc(Br)cc1)Nc1ccc(Cl)cc1 [Compound 71, 3-(4-Chlorophenyl)1-[2-(4-bromophenyl)ethyl]urea] |  | 151 ± 20 nM | 
38 | N#Cc1ccc(CCNC(=O)Nc2ccc(Cl)cc2)cc1 [Compound 72, 3-(4-Chlorophenyl)1-[2-(4-cyanophenyl)ethyl]urea] |  | 443 ± 53 nM | 
39 | O=C(NCCc1ccccc1C(F)(F)F)Nc1ccc(Cl)cc1 [Compound 73, 3-(4-Chlorophenyl)-1-{2-[2-(trifluoromethyl)phenyl]ethyl}urea] |  | 143 ± 34 nM | 
40 | O=C(NCCc1cccc(C(F)(F)F)c1)Nc1ccc(Cl)cc1 [Compound 74, 3-(4-Chlorophenyl)-1-{2-[3-(trifluoromethyl)phenyl]ethyl}urea] |  | 32 ± 7 nM | IC50 (mouse CB1R; [3]): 766 nM
41 | O=C(NCCc1ccc(C(F)(F)F)cc1)Nc1ccc(Cl)cc1 [Compound 75, 3-(4-Chlorophenyl)-1-{2-[4-(trifluoromethyl)phenyl]ethyl}urea] |  | 194 ± 38 nM | 
42 | O=C(NCCc1ccncc1)Nc1ccc(Cl)cc1 [Compound 76, 3-(4-Chlorophenyl)-1-[2-(pyridin-4-yl)ethyl]urea] | > 10000 nM |  | 
43 | O=C(NCCc1cccnc1)Nc1ccc(Cl)cc1 [Compound 77, 3-(4-Chlorophenyl)-1-[2-(pyridin-3-yl)ethyl]urea] | > 10000 nM |  | 
44 | O=C(NCCc1ccccn1)Nc1ccc(Cl)cc1 [Compound 78, 3-(4-Chlorophenyl)-1-[2-(pyridin-2-yl)ethyl]urea] | 3630 ± 687 nM |  | 
45 | Cc1ccc(CCNC(=O)Nc2ccc(Cl)cc2)o1 [Compound 79, 1-(4-Chlorophenyl)-3-[2-(5-methylfuran-2-yl)ethyl]urea] | 255 ± 40 nM |  | IC50 (mouse CB1R; [3]): 2780 nM
46 | CN1CCN(CCNC(=O)Nc2ccc(Cl)cc2)CC1 [Compound 80, 3-(4-Chlorophenyl)-1-[2-(4-methylpiperazin-1-yl)ethyl]urea] | > 10000 nM |  | 
47 | O=C(NCCN1CCCCC1)Nc1ccc(Cl)cc1 [Compound 81, 3-(4-Chlorophenyl)-1-[2-(piperidin-1-yl)ethyl]urea] | > 10000 nM |  | 
48 | O=C(NCCN1CCOCC1)Nc1ccc(Cl)cc1 [Compound 82, 3-(4-Chlorophenyl)-1-[2-(morpholin-4-yl)ethyl]urea] | > 10000 nM |  | 
49 | O=C(NCCN1CCCC1)Nc1ccc(Cl)cc1 [Compound 83, 1-(4-Chlorophenyl)-3-[2-(pyrrolidin-1-yl)ethyl]urea] | > 10000 nM |  | 
50 | CC(=O)NCCNC(=O)Nc1ccc(Cl)cc1 [Compound 84, N-(2-{[(4-Chlorophenyl)carbamoyl]amino}ethyl)acetamide] | 1830 ± 362 nM |  | 
